Where a name gives a salt, the structure may show the parent alone. Read-outs that look alike come from different tables or passages of the source.

Series [1] is described as follows: Pharmacokinetic parameters in Swiss mice after oral administration. The following applies: mouse, in vivo, 1 mg/kg p.o.; for Cmax: n = 4; for AUC(0-t): n = 4, read-out: AUC(0-48 h). An excerpt: Moreover, preferred compounds of the present invention also display an outstanding bioavailability.
In series [2] the test system is circulating lymphocytes. Briefly: In vivo lymphopenia ED50 in mice. The following applies: Mus musculus, Lymphocyte, read-out: ED50 (EDG1) (In mice). How it is done: (§1) b) Assessment of Lymphopenia
(§2) Lymphopenia was assessed in vivo. Experiments were done in non-fasted/fasted Swiss mice and/or: Sprague Dawley rats, Wistar rats, Beagle dogs, Cynomolgus monkeys. Compounds were administered orally in suspension in carboxymethyl-cellulose 0.5-1% in water (W/V). Blood was taken on anesthetized/non anaesthetized animal (4% isoflurane) and samples collected in EDTA-containing vacuum tubes from 1 h 30 to 72 hours post administration for lymphopenia measurement.
(§3) After 10 minutes stirring, cells were counted using ABC Vet haemocytometer (Scil vet animal Care) for rodent and dog or ADVIA 120 hematology analyzer for monkeys. Pharmacodynamic effect was measured by the decrease in circulating lymphocytes by test item treatment in comparison with haematological parameters of control animals or versus predosing in the same animals.

The next series relates to EDG1. The series can be described thus: In vivo activity versus counterpart of WO 2007/132307. The following applies: at 1 mg/kg. The text has this: The compounds of the invention show a better in vivo activity profile over their corresponding counterparts of WO 2007/132307, as evidenced below: […]
Series [3] has as its target T1, EDG-1 (Homo sapiens, UniProt P21453). The series can be described thus: 35S-GTPγS binding assay, EDG1 (S1P1). The format is biochemical. The arrangement: expressed in transfected cells. In a few lines: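 Cell membranes (~15 μg protein) in 50 mM tris-HCl pH 7.5, 10 mM MgCl2, 100 mM NaCl, 10 μM GDP with 0.025 nM [35S]GTP-γ-S; nonspecific binding defined by 10 μM unlabelled GTP-γ-S. Intrinsic activity expressed relative to maximal S1P stimulation (full/partial agonism).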

The target of a further series is EDG3 (Homo sapiens, UniProt Q99500). The series can be described thus: 35S-GTPγS binding assay, EDG3 (S1P3). Type of series: biochemical. The following applies: Table 1a. How it is done:
(§4) a) 35S-GTPγS Binding Assay GTP-γ-^35S binding was performed using […]15 μg protein of cell membranes suspended in 50 mM tris-HCl pH 7.5 containing 10 mM MgCl2, 100 mM NaCl and 10 μM GDP. The radioligand was 0.025 nM [^35S] GTP-γ-S and non specific binding determined in the presence of 10 μM non-radioactive GTP-γ-S. […] The maximal stimulation elicited by S1P was taken as a reference to define full or partial agonism and calculate the intrinsic activity (i.a.) of compounds.

Another series deals with hERG channel (Homo sapiens, UniProt Q12809). Briefly: biochemical. How it is done:
c) Evaluation of Activity for hERG Blockade Liability
HEK293 cells were stably transfected with the human hERG receptor gene. Binding assays were performed using 5 μg of cell membranes expressing hERG channel resuspended in 10 mM Hepes pH 7.4, 135 mM NaCl, 60 mM DL-Aspartic Acid Potassium, 1 mM EGTA, 0.8 mM MgCl2, 10 mM (D+) Glucose, 0.01% BSA, in a final volume of 200 μL. For [^3H] […] Non specific binding was estimated in the presence of 1 μM Astemizole. The reaction was terminated by filtration through Durapore BV 1.2 μm filters pre-soaked in 3% polyethyleneimine 10 minutes at room temperature. Filters were rinsed 2 times with 250 μL of ice cold 25 mM Tris-HCl pH 7.4 buffer. The filter-bound radioactivity was measured in a liquid scintillation counter with 50 μL of scintillation fluid. [^3H]
The hERG binding investigated by use of [^3H]

Another series has as its target EDG5 (Homo sapiens, UniProt O95136). Briefly: 35S-GTPγS binding assay, EDG5 (S1P2). The following applies: Table 1a. Type of series: biochemical. How it is done:
as §4

The subject of series [4] is circulating lymphocytes. Briefly: Assessment of lymphopenia in rats. The format is in vivo. As to conditions: 0.3 mpk, 24 hrs. How it is done: as §1, §2, §3
For series [5], the target named is T1, EDG-1. Briefly: [3H]dihydroS1P binding assay on HEK293-EDG-1 cell membranes. The arrangement: expressed in transfected cells; host or cells: HEK293. The following applies: transfected HEK293 cells; read-out: IC50, competition with [3H]dihydroS1P. The text has this: Furthermore, we settled a binding assay on HEK293-EDG-1 cells on these membranes using [3H]dihydroS1P. By Scatchard analysis we identified one binding site for [3H]dihydroS1P. Both S1P and dihydroS1P (an S1P biometabolite) compete with [3H]dihydroS1P on transfected HEK293 cells with an 1050 closed to 5± nM and a maximum binding capacity Bmax of […] of protein.

Setting [6] is: Table 1a, read-out: EC50 (nM) EDG1.

T1 sequence (P21453 whole entry): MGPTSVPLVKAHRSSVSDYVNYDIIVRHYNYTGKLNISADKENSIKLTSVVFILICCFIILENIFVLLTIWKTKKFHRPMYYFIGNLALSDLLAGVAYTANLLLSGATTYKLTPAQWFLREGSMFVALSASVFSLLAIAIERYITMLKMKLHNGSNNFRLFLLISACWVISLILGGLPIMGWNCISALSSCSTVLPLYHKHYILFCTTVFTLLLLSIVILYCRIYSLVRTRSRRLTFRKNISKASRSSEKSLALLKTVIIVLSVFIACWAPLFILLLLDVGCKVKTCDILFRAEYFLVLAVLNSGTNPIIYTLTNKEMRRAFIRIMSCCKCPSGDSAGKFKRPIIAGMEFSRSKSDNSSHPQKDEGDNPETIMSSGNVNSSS
hERG channel, sequence (Q12809 whole entry): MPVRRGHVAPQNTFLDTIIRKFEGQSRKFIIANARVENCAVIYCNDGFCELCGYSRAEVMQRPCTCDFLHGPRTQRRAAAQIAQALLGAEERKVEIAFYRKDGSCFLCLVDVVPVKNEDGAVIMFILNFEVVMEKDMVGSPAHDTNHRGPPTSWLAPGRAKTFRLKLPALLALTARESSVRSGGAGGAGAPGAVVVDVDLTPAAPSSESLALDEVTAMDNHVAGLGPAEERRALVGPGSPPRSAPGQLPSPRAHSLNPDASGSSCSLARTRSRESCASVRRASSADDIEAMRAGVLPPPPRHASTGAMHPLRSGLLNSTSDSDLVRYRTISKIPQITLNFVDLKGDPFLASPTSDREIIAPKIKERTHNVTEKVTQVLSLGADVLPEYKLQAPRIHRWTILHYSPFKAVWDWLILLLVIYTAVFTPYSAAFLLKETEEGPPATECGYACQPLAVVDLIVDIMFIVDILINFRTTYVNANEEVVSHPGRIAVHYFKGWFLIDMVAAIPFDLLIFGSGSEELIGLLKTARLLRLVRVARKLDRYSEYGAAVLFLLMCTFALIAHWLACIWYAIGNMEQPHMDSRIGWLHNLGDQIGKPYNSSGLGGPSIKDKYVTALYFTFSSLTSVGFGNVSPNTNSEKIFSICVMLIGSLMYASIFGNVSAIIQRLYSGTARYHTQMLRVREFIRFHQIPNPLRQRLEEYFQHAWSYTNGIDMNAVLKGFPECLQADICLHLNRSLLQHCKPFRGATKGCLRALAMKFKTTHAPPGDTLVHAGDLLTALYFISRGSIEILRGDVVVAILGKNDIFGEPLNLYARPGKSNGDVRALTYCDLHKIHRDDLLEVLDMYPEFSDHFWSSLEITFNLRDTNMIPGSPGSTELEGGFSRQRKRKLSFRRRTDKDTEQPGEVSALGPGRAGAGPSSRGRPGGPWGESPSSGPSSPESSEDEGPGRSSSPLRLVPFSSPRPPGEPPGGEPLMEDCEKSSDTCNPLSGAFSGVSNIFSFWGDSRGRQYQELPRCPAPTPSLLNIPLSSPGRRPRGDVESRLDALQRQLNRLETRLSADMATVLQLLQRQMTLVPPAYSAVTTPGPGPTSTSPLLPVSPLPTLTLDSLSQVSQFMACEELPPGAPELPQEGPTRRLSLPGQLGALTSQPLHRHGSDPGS
EDG3, sequence (Q99500 whole entry, species assumed): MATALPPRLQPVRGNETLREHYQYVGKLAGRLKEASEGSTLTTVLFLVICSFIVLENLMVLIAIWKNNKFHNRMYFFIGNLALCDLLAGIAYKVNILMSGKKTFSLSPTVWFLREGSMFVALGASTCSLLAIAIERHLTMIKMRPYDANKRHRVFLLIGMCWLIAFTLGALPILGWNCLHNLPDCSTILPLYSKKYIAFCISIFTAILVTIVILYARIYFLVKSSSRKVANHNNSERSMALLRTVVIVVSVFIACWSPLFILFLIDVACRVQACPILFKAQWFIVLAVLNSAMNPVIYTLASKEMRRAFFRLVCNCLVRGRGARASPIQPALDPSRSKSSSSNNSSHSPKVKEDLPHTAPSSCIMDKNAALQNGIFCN
EDG5, sequence (O95136 whole entry, species assumed): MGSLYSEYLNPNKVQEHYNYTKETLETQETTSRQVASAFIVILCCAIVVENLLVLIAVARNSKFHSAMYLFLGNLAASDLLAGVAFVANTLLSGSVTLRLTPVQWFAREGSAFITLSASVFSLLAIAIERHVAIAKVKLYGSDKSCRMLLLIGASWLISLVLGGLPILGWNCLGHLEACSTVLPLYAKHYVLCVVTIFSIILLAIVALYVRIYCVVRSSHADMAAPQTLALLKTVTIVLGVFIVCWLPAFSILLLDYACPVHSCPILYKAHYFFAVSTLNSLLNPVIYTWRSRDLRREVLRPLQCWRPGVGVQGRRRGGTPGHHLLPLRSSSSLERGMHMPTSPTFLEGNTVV

`CC(C)Cc1ccc(-c2nc(-c3ccc(CN4CC(C(=O)O)C4)cc3)no2)cc1` [Comparative compound 5, reference compound]: in series [1], the Cmax was 495 ng/mL and the AUC(0-t) was determined as 4530 ng·h/mL.

As to `Cl.O=C(O)C1(C(=O)O)CCN(Cc2ccc(-c3noc(-c4ccc(-c5ccccc5)c(F)c4)n3)cc2)CC1` [Comparative example 6, reference compound], in the series with circulating lymphocytes [2], the ED50 stood at 0.4 mg/kg.

Consider `CC(C)Cc1ccc(-c2nc(-c3ccc(CN4CCC(C(=O)O)(C(=O)O)CC4)cc3)no2)cc1` [Comparative example 7, reference compound], for which the median effective dose (ED50) with circulating lymphocytes [2] came to 1.8 mg/kg.

Take `Cl.O=C(O)C1(C(=O)O)CCN(Cc2ccc(-c3noc(-c4ccc(C5CCCCC5)cc4)n3)cc2)CC1` [Comparative example 8, reference compound]: the ED50 with circulating lymphocytes [2] stood at 10 mg/kg.

Turning to `CC(C)Cc1ccc(-c2nc(-c3ccc(CN[C@H]4C[C@@H](C(=O)O)C4)cc3)no2)cc1` [Comparative example 9, reference compound], the “ED50 (EDG1)” value with EDG1 is “Inactive at 1 mg/kg”.

With `CC(C)Cc1ccc(-c2nc(-c3ccc(CN4CCC(C)(C(=O)O)CC4)cc3)no2)cc1Cl` [Example 3, 1-{4-[5-(3-chloro-4-isobutylphenyl)-[1,2,4]-oxadiazol-3-yl]benzyl}-4-methylpiperidine-4-carboxylic acid], in [1], the Cmax was 798 ng/mL and the AUC(0-t) is 13100 ng·h/mL. Moreover, the ED50 in the series with circulating lymphocytes [2] worked out at 0.2 mg/kg.

Take `CC1(C(=O)O)CCN(Cc2ccc(-c3noc(-c4ccc(-c5ccccc5)c(Cl)c4)n3)cc2)CC1` [Example 8, 1-{4-[5-(2-Chlorobiphenyl-4-yl)-[1,2,4]-oxadiazol-3-yl]benzyl}-4-methylpiperidine-4-carboxylic acid]: the ED50 in the series on circulating lymphocytes [2] worked out at 0.1 mg/kg. Further, the EC50 at EDG-1 [3] (Table 1b, read-out: EDG1 EC50) was less than 1 nM.

`COCC1(C(=O)O)CCN(Cc2ccc(-c3noc(-c4ccc(C5CCCCC5)c(Cl)c4)n3)cc2)CC1` [Example 10, 1-{4-[5-(3-chloro-4-cyclohexylphenyl)-[1,2,4]-oxadiazol-3-yl]benzyl}-4-methoxymethylpiperidine-4-carboxylic acid tert-butyl amine salt]: the EC50 is 610 nM at EDG3; less than 1 nM on EDG-1 [3] (setting [6]); less than 1 nM at EDG-1 [3] (Table 1b, read-out: EDG1 EC50). This compound also came in with a Ki at hERG channel of more than 10000 nM. Further, the ED50 in the series with circulating lymphocytes [2] worked out at 0.2 mg/kg.

In the case of `CCC1(C(=O)O)CCN(Cc2ccc(-c3noc(-c4ccc(CC(C)C)c(Cl)c4)n3)cc2)CC1` [Example 11, 1-{4-[5-(3-chloro-4-isobutylphenyl)-[1,2,4]-oxadiazol-3-yl]benzyl}-4-ethylpiperidine-4-carboxylic acid tert-butyl amine salt], the EC50 on EDG3 is 198 nM; at EDG5, more than 1000 nM; on EDG-1 [3] (setting [6]), less than 1 nM; on EDG-1 [3] (Table 1b, read-out: EDG1 EC50) it was less than 1 nM. Besides, on hERG channel, the Ki is more than 10000 nM. For the same compound, in the series on circulating lymphocytes [4] (Wistar female), the “Lymphopenia in rats % lymphopenia at given dose at 24 hrs” value (“Lymphopenia in rats % lymphopenia” below) is given as 75% (0.3 mpk).

For `C=CCC1(C(=O)O)CCN(Cc2ccc(-c3noc(-c4ccc(CC(C)C)c(Cl)c4)n3)cc2)CC1` [Example 12, 4-allyl-1-{4-[5-(3-chloro-4-isobutylphenyl)-[1,2,4]-oxadiazol-3-yl]benzyl}piperidine-4-carboxylic acid tert-butyl amine salt], the EC50 at EDG3 was more than 1000 nM; on EDG5 it was more than 1000 nM; on EDG-1 [3] (setting [6]), less than 1 nM; at EDG-1 [3] (Table 1b, read-out: EDG1 EC50), less than 1 nM. The compound also yielded a Ki at hERG channel of more than 10000 nM. Further, the “Lymphopenia in rats % lymphopenia” value in the series with circulating lymphocytes [4] (Wistar female) is listed as 66% (0.3 mpk).

As for `COCCOCC1(C(=O)O)CCN(Cc2ccc(-c3noc(-c4ccc(CC(C)C)c(Cl)c4)n3)cc2)CC1` [Example 14, 1-{4-[5-(3-chloro-4-isobutylphenyl)-[1,2,4]-oxadiazol-3-yl]benzyl}-4-(2-methoxyethoxymethyl)piperidine-4-carboxylic acid tert-butyl amine salt], the EC50 was more than 1000 nM at EDG3, more than 1000 nM at EDG5 and less than 1 nM on EDG-1 [3] (setting [6]). Besides, the Ki on hERG channel was more than 10000 nM. In the series on circulating lymphocytes [4] (Wistar male), the “Lymphopenia in rats % lymphopenia” value is reported as 72% (0.3 mpk). The compound further came in with a Cmax in [1] of 843 ng/mL. In addition, the AUC(0-t) in [1] amounted to 9240 ng·h/mL. In the series with circulating lymphocytes [2], the ED50 was 0.2 mg/kg.

Regarding `CC(C)Cc1ccc(-c2nc(-c3ccc(CN4CCC(CO)(C(=O)O)CC4)cc3)no2)cc1Cl` [Example 15, 1-{4-[5-(3-chloro-4-isobutylphenyl)-[1,2,4]-oxadiazol-3-yl]benzyl}-4-hydroxymethylpiperidine-4-carboxylic acid tert-butyl amine salt], the EC50 is more than 1000 nM at EDG3; more than 1000 nM on EDG5; less than 1 nM on EDG-1 [3] (setting [6]); less than 1 nM at EDG-1 [3] (Table 1b, read-out: EDG1 EC50). The compound further gave a Ki at hERG channel of more than 10000 nM. Also, the “Lymphopenia in rats % lymphopenia” value in the series on circulating lymphocytes [4] (Sprague-Dawley female) was 69% (0.3 mpk).

Turning to `CCCCCCCCCCCCC/C=C/[C@@H](O)[C@@H](N)COP(=O)(O)O` [Example S1P, sphingosine-1-phosphate], on EDG-1 [5], the IC50 was approximately 5 nM.

As to `CCCCCCCCCCCCCCC[C@@H](O)[C@@H](N)COP(=O)(O)O` [dihydroS1P], at EDG-1 [5], the IC50 was approximately 5 nM.

As to `CC(C)Cc1ccc(-c2nc(-c3ccc(CN4CCC(C)(C(=O)O)CC4)cc3)no2)cc1` [drawing 239], the lymphopenia in the series with EDG1 stood at 40% at 1 mg/kg.

The values above are taken from US9266867B2, “Piperidinyl monocarboxylic acids as S1P1 receptor agonists” (BIOPROJET, priority 2011, dated 2016).
